Data published in patent US20230218746A1, “COMPOSITIONS AND METHODS RELATING TO ANTIVIRAL THERAPEUTICS” (priority 2020, published 2023).

Assays:
SARS-CoV-2 mimics = assay: In vivo clearance of the SARS-CoV-2 mimicking virus by nanodecoys in mice; parameters: species or system CD1 mice; details: mouse
COVID-19 = details: hospitalized COVID-19 patients; cited from earlier work

Compound | amounts of SARS-CoV-2 mimics in lungs (ex vivo imaging) (SARS-CoV-2 mimics) | effect on overall mortality, necessity for mechanical ventilation, and length of hospital stay (COVID-19)
rACE2: free recombinant ACE2 protein, same amount of ACE2 as on the nanodecoys | ineffective | 
CCN(CCO)CCCC(C)Nc1ccnc2cc(Cl)ccc12 (stereo not drawn) [hydroxychloroquine] |  | little or no effect
lopinavir/ritonavir |  | little or no effect
